Source: article PMC7573564, “The Sensing Liver: Localization and Ligands for Hepatic Murine Olfactory and Taste Receptors” (Frontiers in Physiology, 2020)
Entries after “also recorded” stand apart in the source; their conditions may differ.

Experiments:
MOR139-1 = system: MOR139-1; design: method as in Hiroaki Matsunami, 2010; conditions: ref Hiroaki Matsunami, 2010; cited from earlier work
Candida albicans = system: Candida albicans; design: method as in Manoharan et al., 2017; conditions: ref Manoharan et al., 2017; cited from earlier work
Olfr57 = Olfr57 (Mus musculus, UniProt Q8VGU7); experiment: cAMP-dependent dual luciferase reporter assay, Olfr57 expressed in HEK293T cells; format: cell-based; conditions: for Olfr57 activation (cAMP-mediated response), in words: HEK293T cells expressing Olfr57; for EC50: HEK293T cells expressing Olfr57, Firefly:Renilla ratio, 4 h, dose response of at least 6 concentrations, read-out: EC50 for activation of Olfr57
Chain of Olfr57 (Q8VGU7 entry or part of it): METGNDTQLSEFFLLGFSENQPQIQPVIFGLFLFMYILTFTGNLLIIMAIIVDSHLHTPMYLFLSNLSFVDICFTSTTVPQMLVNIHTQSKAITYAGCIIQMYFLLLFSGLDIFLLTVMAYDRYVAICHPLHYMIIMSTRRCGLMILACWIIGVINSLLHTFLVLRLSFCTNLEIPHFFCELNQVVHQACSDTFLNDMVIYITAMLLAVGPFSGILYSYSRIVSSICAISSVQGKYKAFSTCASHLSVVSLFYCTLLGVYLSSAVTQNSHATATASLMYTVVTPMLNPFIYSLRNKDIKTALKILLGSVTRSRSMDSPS
Description: (§1) For ORs whose trafficking conditions could be established as described above, an unbiased ligand screen using a dual-luciferase reporter assay (Promega) was used to identify potential ligands. Briefly, ORs were transiently transfected (Lipofectamine 2000, Invitrogen) in triplicate into HEK293T cells along with constructs encoding for CREB-dependent luciferase (Firefly) and a constitutively expressed luciferase (Renilla), along with any accessory proteins previously established to be required for effective cell-surface trafficking. Additional surface labeling experiments were performed with the Firefly and Renilla constructs to ensure effective trafficking was not lost under these transfection conditions. OR activation leads to a rise in cAMP which drives an increase in Firefly luciferase expression. Firefly activity is normalized to the activity of the Renilla luciferase to control for variation in cell number and transfection efficiency. Data were collected using a FLUOstar Omega automated plate reader (BMG LabTech, Cary, NC, United States). Cells were allowed to incubate for at least 30 min in CD293 minimal media, and were then bathed with potential odorants diluted in minimal media for 4 h before measuring Firefly and Renilla-derived luminescence. Initially, screening was performed using odorant mixes that are grouped mainly by functional groups (BzB: nonanal, heptanal, valeraldehyde; BzC: carvone, eugenol, cinnamaldehyde; MA: amyl acetate, 3-octanone, acetophenone; OXLK: 2,3-butanedione, pyruvaldehyde, acetic acid, 1,2-ethanedithiol, 2-butanone; THI-DI: 1,6-hexanedithiol, 1,2-ethanedithiol, 2-methyl-1-propanethiol, 1,2-butanedithiol, 2,3-butanedithiol). These mixtures are known to elicit activation of a large number of olfactory sensory neurons and thus cover a wide range of ‘odorant space’ ([Pluznick et al., 2013]), followed by any known ligands to ORs in the same family as those being tested, as well as physiologically relevant substances. A complete list of chemicals used for screening is found in Supplementary Table 1 and all chemicals tested were obtained from Sigma or Fisher Scientific. To begin, all compounds screened were tested at a minimum of two concentrations (100–300 μm and 1–5 mM) to cover a wide range of potential activation. For each assay, Olfr78 or Olfr1393 and known activators of these receptors (Propionate and Cycloheptanol, respectively) were used as positive controls. In order to determine specific activation, potential activators of one receptor were also tested on at least one other OR simultaneously. Negative controls were performed with both media, and media containing DMSO. […] A significant rise in Firefly:Renilla over baseline was determined by multiple T-Tests ([…] deemed significant).

[1] = system: Olfr16 and its human homolog, OR10J5; design: method as in von der Weid et al., 2015; Tong et al., 2017; conditions: ref von der Weid et al., 2015; Tong et al., 2017; cited from earlier work
Olfr177 = Olfr177 (Mus musculus, UniProt E9Q7W1); experiment: cAMP-dependent dual luciferase reporter assay, Olfr177 expressed in HEK293T cells; format: cell-based; conditions: for Olfr177 activation (cAMP response, Firefly:Renilla), in words: HEK293T cells expressing Olfr177; for EC50: HEK293T cells expressing Olfr177, Firefly:Renilla ratio, 4 h, dose response of at least 6 concentrations, read-out: EC50 for activation of Olfr177
Chain of Olfr177 (E9Q7W1 entry or part of it): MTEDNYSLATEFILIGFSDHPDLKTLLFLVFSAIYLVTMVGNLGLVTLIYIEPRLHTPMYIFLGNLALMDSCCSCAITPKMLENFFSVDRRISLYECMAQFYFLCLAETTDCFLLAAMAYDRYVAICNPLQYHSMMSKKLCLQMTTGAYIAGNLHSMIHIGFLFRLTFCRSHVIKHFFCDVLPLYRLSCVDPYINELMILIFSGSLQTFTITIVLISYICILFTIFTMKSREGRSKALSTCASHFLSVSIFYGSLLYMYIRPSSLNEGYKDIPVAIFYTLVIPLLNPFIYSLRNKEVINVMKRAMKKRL
Description: as §1

[2] = system: Olfr78 and its human homolog, OR51E2; design: method as in Pluznick et al., 2013; conditions: ref Pluznick et al., 2013; cited from earlier work
heme oxygenase = system: heme oxygenase; design: method as in Parra, 2012; conditions: hepatocellular carcinoma line (HepG2); ref Parra, 2012; cited from earlier work
OR5K1 = system: OR5K1; design: method as in Wilkin Françoise et al., 2015; conditions: ref Wilkin Françoise et al., 2015; cited from earlier work
phosphodiesterase = system: phosphodiesterase; design: method as in Parra, 2012; conditions: ref Parra, 2012; cited from earlier work
CYP2A6 = system: CYP2A6; design: method as in Gyoubu and Miyazawa, 2007; Miyazawa and Gyoubu, 2007; conditions: ref Gyoubu and Miyazawa, 2007; cited from earlier work
Olfr544 = system: Olfr544; design: method as in Abaffy et al., 2007; Kang et al., 2015; Thach et al., 2017; conditions: ref Abaffy et al., 2007; Kang et al., 2015; Thach et al., 2017; cited from earlier work

Compound: (1R)-(+)-camphor
- Response of MOR139-1 (MOR139-1): respond
- antibiofilm and antihyphal properties (Candida albicans): antibiofilm and antihyphal properties
- Olfr57 activation (cAMP-mediated response), in words (Olfr57): weakly activate

Compound: CC1=CC[C@@]23CC1C(C)(C)[C@@H]2CC[C@H]3C [α-cedrene]
- Activation of Olfr16 and OR10J5 [1]: activated

Compound: c1cnccn1 [pyrazine]
- Olfr177 activation (cAMP response, Firefly:Renilla), in words (Olfr177): did not elicit OR activation

Compound: CC(=O)/C=C/C1=C(C)CCCC1(C)C [β-ionone]
- Response of Olfr78 and OR51E2 [2]: respond

Compound: CCc1ncc(C)nc1C [2-ethyl-3,5-dimethylpyrazine]
- heme oxygenase activity (heme oxygenase): induced
- Activation of OR5K1 (OR5K1): activated
- phosphodiesterase activity (phosphodiesterase): inhibit
- Olfr177 activation (cAMP response, Firefly:Renilla), in words (Olfr177): significant increase
- EC50 (Olfr177): 1070 µM

Compound: C=C1C2CCC(C2)C1(C)C (centres unmarked) [camphene]
- Olfr57 activation (cAMP-mediated response), in words (Olfr57): did not elicit a cAMP-mediated response; also recorded: non-activators

Compound: O=C1CC2CC[C@H]1C2 [norcamphor]
- Olfr57 activation (cAMP-mediated response), in words (Olfr57): did not elicit a cAMP-mediated response; also recorded: non-activators

Compound: CCc1nccnc1C [2-ethyl-3-methylpyrazine]
- EC50 (Olfr177): 1670 µM

Compound: Cc1cnc(C)c(C)n1 [2,3,5-trimethylpyrazine]
- Olfr177 activation (cAMP response, Firefly:Renilla), in words (Olfr177): failed to plateau

Compound: CC1(C)C2CCC1(C)C(O)C2 (centres unmarked) [borneol]
- antibiofilm and antihyphal properties (Candida albicans): antibiofilm and antihyphal properties
- EC50 (Olfr57): 240 µM

Compound: CC1(C)C2CCC1(CS(=O)(=O)O)C(=O)C2 (centres unmarked) [camphorsulfonic acid]
- Olfr57 activation (cAMP-mediated response), in words (Olfr57): did not elicit a cAMP-mediated response; also recorded: non-activators

Compound: CC(C)[C@]12CC(=O)[C@H](C)[C@H]1C2 [thujone]
- Olfr57 activation (cAMP-mediated response), in words (Olfr57): did not elicit a cAMP-mediated response; also recorded: non-activators

Compound: C=C1CCC2CC1C2(C)C (centres unmarked) [pinene]
- Olfr57 activation (cAMP-mediated response), in words (Olfr57): did not elicit a cAMP-mediated response; also recorded: non-activators

Compound: CC(=O)c1ccccc1 [Acetophenone]
- Activation of Olfr16 and OR10J5 [1]: activated

Compound: CC12CCC(CC1)C(C)(C)O2 [eucalyptol]
- EC50 (Olfr57): 234 µM

Compound: CC12CCC(C1)C(C)(C)C2=O [(1R)-(-)-fenchone]
- antibiofilm and antihyphal properties (Candida albicans): antibiofilm and antihyphal properties
- metabolized in the liver by microsomal enzyme CYP2A6 (CYP2A6): metabolized
- EC50 (Olfr57): 94 µM

Compound: CC12CCC(C1)C(C)(C)C2O (centres unmarked) [fenchyl alcohol]
- antibiofilm and antihyphal properties (Candida albicans): antibiofilm and antihyphal properties
- EC50 (Olfr57): 45 µM

Compound: O=C(O)CCCCCCCC(=O)O [azelaic acid]
- Activation of Olfr544 (Olfr544): activated

Compound: CC(C)(O)CCCC1=CCC(C=O)CC1 (centres unmarked) [lyral]
- Activation of Olfr16 and OR10J5 [1]: activated
